Test results taken from patent US20200054555A1, “CONTACT LENS WITH FUNCTIONAL COMPONENTS AND PRODUCTS THEREOF” (UNICON OPTICAL CO., LTD., priority 2018, published 2020).

Experiment: accumulated release of functional components from the contact lens over time, detected by high performance liquid chromatography
Type: physicochemical
Conditions: with a cyclic oligosaccharide or cyclic polysaccharide
Procedure: Further, the present invention uses high performance liquid chromatography to detect accumulation of the released functional components of the contact lens with increasing time. It is learned from FIG. 2: the contact lens of the present invention, which is a HEMA lens made up of 38% water by weight and a cyclic oligosaccharide or cyclic polysaccharide, can persistently release Vitamin B12 for a longer period of time (more than 12 hours). It is learned from FIG. 3: the contact lens of the present invention, which is an organosilicon hydrogel contact lens made up of 43% water by weight and a cyclic oligosaccharide or cyclic polysaccharide, can persistently release Vitamin B12 for a longer period of time (more than 12 hours). It is learned from FIG. 4: the contact lens of the present invention, which contains HEMA and 38% water by weight and a cyclic oligosaccharide or cyclic polysaccharide, can persistently release curcumin for a longer period of time (more than 20 hours). It is learned from FIG. 5: the contact lens of the present invention, which contains HEMA and 38% water by weight and a cyclic oligosaccharide or cyclic polysaccharide, can persistently release quercetin in a longer time interval (more than 20 hours). It is learned from FIG. 6: the contact lens of the present invention, which is made from HEMA and 38% water by weight, and a cyclic oligosaccharide or cyclic polysaccharide, can persistently release xanthophyll for a longer period of time (more than 30 hours).

[1] = HEMA contact lens, 38% water by weight, FIG. 2, 4, 5, 6

Substance | period of persistent release of the functional component from the contact lens [1] | period of persistent release of the functional component from the contact lens (organosilicon hydrogel contact lens, 43% water by weight, FIG. 3)
Vitamin B12 | more than 12 hours | more than 12 hours
xanthophyll | more than 30 hours | –
